The values that follow come from ChEMBL document CHEMBL5465560, “Selectivity Literature for EUbOPEN Chemogenomic Library” (2024).

Assay [1] addresses Ribosomal protein S6 kinase alpha-6 (Homo sapiens, UniProt Q9UK32). The settings on record: at 10 µM.
Assay [2] has as its target Serine/threonine-protein kinase Nek6 (Homo sapiens) (UniProt Q9HC98). The experiment in a line: Selectivity interaction (Kinase panel (Z-LYTE Assay)) EUB0001632a NEK6. The settings on record: at 10 µM.
For assay [3], the target named is T1, Dual specificity mitogen-activated protein kinase kinase 6 (Homo sapiens) (UniProt P52564).
T1 sequence (whole entry): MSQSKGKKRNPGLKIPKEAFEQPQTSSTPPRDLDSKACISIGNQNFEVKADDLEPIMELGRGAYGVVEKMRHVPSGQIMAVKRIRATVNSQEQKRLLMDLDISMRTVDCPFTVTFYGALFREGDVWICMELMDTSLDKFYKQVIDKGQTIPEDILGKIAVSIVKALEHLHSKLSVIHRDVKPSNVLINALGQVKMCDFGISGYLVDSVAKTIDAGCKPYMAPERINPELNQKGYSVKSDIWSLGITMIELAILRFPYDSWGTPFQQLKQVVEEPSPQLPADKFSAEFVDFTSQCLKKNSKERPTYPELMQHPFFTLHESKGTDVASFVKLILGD
Description: Selectivity interaction (ActivX KiNativ screen (kinase selectivity in THP-1 cell lysates)) EUB0000639a MAP2K6. It is filed as subcellular. To be noted: lysate, at 0.01 µM.

Assay [4] has as its target T2, Dual specificity tyrosine-phosphorylation-regulated kinase 2 (Homo sapiens) (UniProt Q92630).
T2 sequence (whole entry): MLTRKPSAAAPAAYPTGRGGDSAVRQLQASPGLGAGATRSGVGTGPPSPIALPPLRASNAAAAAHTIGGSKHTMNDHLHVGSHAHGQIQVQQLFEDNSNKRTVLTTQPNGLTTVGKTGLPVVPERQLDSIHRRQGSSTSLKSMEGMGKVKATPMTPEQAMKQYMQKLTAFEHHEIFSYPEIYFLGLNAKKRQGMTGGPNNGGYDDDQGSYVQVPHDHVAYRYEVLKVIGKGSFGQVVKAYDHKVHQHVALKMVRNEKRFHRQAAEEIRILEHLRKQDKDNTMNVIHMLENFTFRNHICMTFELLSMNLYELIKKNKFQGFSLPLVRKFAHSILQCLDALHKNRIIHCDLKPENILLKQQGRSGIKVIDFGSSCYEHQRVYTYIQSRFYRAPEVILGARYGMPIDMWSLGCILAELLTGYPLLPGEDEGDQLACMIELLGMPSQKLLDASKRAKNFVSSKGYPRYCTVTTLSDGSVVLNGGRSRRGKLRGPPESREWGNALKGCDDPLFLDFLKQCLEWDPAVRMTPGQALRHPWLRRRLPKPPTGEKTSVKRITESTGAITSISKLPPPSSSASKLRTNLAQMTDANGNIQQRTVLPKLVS
The experiment in a line: Selectivity interaction (Kinase panel (DSF assay)) EUB0001559a DYRK2. (In general: In DSF a fluorescence change marks the thermal transition of the protein.)

The target of assay [5] is T3, Tyrosine-protein kinase ZAP-70 (Homo sapiens) (UniProt P43403).
T3 sequence (whole entry): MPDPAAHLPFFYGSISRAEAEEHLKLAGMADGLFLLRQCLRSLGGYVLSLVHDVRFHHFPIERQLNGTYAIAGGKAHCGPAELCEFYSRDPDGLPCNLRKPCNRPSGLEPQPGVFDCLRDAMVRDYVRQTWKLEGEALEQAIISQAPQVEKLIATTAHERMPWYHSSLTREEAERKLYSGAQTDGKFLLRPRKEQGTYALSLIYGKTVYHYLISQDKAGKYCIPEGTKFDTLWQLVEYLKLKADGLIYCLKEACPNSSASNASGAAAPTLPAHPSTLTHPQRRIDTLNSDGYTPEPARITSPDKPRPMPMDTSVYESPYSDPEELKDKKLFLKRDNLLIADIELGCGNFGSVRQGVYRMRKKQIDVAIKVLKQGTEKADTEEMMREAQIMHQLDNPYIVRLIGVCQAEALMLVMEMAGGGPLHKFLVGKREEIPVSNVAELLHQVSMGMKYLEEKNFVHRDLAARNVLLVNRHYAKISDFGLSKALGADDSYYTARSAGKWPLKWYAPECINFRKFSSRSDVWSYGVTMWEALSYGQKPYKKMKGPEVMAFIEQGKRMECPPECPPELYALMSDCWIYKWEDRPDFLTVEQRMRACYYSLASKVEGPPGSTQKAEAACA
Description: Selectivity interaction (ActivX KiNativ screen (ex vivo kinase selectivity in human PBMCs)) EUB0001619a ZAP70. The class given is cell-based. The settings on record: PBMC, at 1 µM.

In assay [6] the target is T4, Ankyrin repeat and protein kinase domain-containing protein 1 (Homo sapiens) (UniProt Q8NFD2).
T4 sequence (whole entry): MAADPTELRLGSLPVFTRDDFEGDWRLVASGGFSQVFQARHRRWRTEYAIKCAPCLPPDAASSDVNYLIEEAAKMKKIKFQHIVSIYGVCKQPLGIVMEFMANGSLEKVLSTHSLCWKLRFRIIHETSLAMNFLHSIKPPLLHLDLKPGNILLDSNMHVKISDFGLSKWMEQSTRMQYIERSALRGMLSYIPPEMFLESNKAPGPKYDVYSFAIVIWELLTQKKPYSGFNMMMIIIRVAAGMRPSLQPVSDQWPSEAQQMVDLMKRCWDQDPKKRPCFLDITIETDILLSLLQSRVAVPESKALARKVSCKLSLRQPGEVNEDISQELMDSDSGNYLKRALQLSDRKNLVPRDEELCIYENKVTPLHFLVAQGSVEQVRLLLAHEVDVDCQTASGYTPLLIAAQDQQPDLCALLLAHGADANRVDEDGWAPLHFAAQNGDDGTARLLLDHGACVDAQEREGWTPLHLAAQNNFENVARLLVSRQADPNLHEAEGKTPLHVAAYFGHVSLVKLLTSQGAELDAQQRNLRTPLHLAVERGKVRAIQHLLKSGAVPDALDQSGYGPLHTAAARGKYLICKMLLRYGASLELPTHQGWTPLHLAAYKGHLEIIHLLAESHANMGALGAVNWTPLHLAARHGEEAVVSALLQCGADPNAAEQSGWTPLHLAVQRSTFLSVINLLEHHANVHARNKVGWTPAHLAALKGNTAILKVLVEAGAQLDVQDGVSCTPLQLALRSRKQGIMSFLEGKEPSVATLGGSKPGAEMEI
The experiment in a line: Selectivity interaction (KinomeScan (DiscoverX)) EUB0000618a ANKK1. The settings on record: at 10 µM.

Ribosomal protein S6 kinase alpha-6, sequence (Q9UK32 whole entry): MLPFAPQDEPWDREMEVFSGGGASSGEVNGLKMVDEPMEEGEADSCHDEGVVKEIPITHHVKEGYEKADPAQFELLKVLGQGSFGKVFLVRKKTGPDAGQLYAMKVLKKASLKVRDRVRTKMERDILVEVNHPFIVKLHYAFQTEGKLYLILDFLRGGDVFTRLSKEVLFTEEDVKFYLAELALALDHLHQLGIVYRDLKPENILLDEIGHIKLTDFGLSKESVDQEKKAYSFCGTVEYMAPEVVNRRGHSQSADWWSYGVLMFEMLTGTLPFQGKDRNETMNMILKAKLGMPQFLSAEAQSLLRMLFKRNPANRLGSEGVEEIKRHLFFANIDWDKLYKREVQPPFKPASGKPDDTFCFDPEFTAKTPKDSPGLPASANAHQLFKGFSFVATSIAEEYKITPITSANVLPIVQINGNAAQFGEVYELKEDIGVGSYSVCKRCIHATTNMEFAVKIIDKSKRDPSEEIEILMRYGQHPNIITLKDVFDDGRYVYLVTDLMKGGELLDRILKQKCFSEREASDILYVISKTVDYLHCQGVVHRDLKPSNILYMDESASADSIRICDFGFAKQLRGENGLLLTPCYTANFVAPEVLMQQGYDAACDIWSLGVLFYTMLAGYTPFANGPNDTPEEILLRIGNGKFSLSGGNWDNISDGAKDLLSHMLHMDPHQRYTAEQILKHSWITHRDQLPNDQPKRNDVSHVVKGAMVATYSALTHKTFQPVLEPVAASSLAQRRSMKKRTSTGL
Serine/threonine-protein kinase Nek6 (Homo sapiens), sequence (Q9HC98 whole entry): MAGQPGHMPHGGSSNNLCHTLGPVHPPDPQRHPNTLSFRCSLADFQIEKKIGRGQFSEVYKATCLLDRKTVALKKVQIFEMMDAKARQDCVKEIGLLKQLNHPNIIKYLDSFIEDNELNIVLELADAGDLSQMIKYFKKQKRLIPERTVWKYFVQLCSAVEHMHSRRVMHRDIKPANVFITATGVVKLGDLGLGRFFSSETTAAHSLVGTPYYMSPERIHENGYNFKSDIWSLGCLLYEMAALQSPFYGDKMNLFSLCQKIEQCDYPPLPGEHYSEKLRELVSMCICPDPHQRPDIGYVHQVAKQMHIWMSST

In assay [1], `Cc1cc([C@@H](C)Nc2ccccc2C(=O)O)c2nc(N3CCOCC3)cc(=O)n2c1` [AZD-6482] yielded a % of control of 100%.

In turn, `Cn1cc(-n2cnc3c(NCc4nc5cc(Cl)c(Cl)cc5[nH]4)nc(N4CCOCC4)nc32)cn1` yielded a % of control in assay [2] of 3.78%.

For the molecule `CC[C@@H]1[C@H](F)C(=O)N[C@@H]1COc1nccc2cc(C(N)=O)c(OC)cc12` [ZIMLOVISERTIB], the % of inhibition in assay [3] came out at 7.4%.

`CN(C(=O)c1cnn2cccnc12)c1cc2c(cc1N1CCOCC1)C(=O)N(C[C@@H](F)C(C)(C)O)C2` displayed a dTM in assay [4] of -0.4 K.

As to `N#Cc1cccc(-c2c[nH]c3ncnc(N4CCOCC4)c23)c1`, the % of inhibition in assay [5] is -3%.

`O[C@H]1CC[C@H](Nc2ncc3nc(Nc4c(F)cc(F)cc4F)n([C@H]4CCOC4)c3n2)CC1` gave a % of control in assay [6] of 100%.
